Results: article PMC12504763, “Antiproliferation, 3D-multicellular spheroid and VEGFR-2 inhibitory properties of spiroindolin-2-ones with phosphonate function” (Scientific Reports, 2025)
Where two headings read alike, the source gives them in different places.

Experiments:
[1] = test system: TNF-α; experiment: TNF-α inhibitory properties (ELISA), PaCa2 cell lysate; assay type: cell-based, human; conditions: at 10 μM; for TNF-α pg/mL (± SEM) PaCa2: control 111.8 ± 2.0
[2] = molecular target: T1, COX-1 (Ovis aries, UniProt P05979); experiment: biochemical; conditions: 3 replicates, read-out: % Inhibition of COX-1 ± SEM
T1 construct: purchased BioVision incorporated USA K548–100
T1 sequence (P05979 25-600): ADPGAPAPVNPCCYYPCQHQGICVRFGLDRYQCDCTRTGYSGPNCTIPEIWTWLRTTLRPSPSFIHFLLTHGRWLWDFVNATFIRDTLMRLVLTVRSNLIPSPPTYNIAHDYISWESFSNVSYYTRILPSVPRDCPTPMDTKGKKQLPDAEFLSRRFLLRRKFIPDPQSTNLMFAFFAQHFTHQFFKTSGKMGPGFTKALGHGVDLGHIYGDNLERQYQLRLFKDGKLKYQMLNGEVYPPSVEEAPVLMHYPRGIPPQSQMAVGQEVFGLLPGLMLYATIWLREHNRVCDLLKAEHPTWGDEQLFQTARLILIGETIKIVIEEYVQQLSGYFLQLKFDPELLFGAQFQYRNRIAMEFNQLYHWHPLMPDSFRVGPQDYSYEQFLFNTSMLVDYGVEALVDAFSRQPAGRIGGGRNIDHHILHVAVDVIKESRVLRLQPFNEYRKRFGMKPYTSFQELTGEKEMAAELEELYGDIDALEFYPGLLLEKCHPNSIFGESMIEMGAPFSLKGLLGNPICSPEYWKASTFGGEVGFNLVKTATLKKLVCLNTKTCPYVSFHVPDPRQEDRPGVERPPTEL

[3] = test system: TNF-α; experiment: TNF-α inhibitory properties (ELISA), MCF7 cell lysate; assay type: cell-based, human; conditions: at 10 μM; for TNF-α pg/mL (± SEM) MCF7: control 83.26 ± 1.1
[4] = test system: HCT116 (colon) cancer cell line; experiment: 2D-monolayer antiproliferation (MTT) against HCT116; assay type: cell-based, human; conditions: for IC50: Homo sapiens, HCT-116; for SI (selectivity index) HCT116: IC50 of RPE1 normal cell/IC50 of HCT116
[5] = molecular target: T2, VEGFR-2 (Homo sapiens, UniProt P35968); experiment: cell-based; assay type: cell-based; conditions: for inhibition at 10 µM: MCF7; for VEGFR-2 pg/mL ± SEM MCF7: at 10 μM, control 258.70 ± 2.3
T2 construct: endogenous in cells; host or cells: HCT116, PaCa2, MCF7 (human cancer cell lines, ATCC origin)

[6] = test system: TNF-α; experiment: TNF-α inhibitory properties (ELISA), HCT116 cell lysate; assay type: cell-based, human; conditions: at 10 μM; for TNF-α pg/mL (± SEM) HCT116: control 95.74 ± 0.5
[7] = test system: A549 (lung) cancer cell line; experiment: 2D-monolayer antiproliferation (MTT) against A549; assay type: cell-based, human; conditions: for IC50: Homo sapiens, MTT, 72 h incubation, A549 lung, read-out: IC50, μM ± SEM A549; for SI (selectivity index) A549: IC50 of RPE1 normal cell/IC50 of A549
[8] = molecular target: T2, VEGFR-2; experiment: cell-based; assay type: cell-based; conditions: for inhibition at 10 µM: PaCa-2, PaCa2; for VEGFR-2 pg/mL ± SEM PaCa2: at 10 μM, control 326.80 ± 1.9
[9] = molecular target: T3, COX-2 (Homo sapiens, UniProt P35354); experiment: biochemical; conditions: for inhibition at 10 µM: 3 replicates, read-out: % Inhibition of COX-2 ± SEM; for SI (selectivity index, COX-2/COX-1): at 10 μM
T3 construct: purchased BioVision incorporated USA K548–100
T3 sequence (P35354 18-604): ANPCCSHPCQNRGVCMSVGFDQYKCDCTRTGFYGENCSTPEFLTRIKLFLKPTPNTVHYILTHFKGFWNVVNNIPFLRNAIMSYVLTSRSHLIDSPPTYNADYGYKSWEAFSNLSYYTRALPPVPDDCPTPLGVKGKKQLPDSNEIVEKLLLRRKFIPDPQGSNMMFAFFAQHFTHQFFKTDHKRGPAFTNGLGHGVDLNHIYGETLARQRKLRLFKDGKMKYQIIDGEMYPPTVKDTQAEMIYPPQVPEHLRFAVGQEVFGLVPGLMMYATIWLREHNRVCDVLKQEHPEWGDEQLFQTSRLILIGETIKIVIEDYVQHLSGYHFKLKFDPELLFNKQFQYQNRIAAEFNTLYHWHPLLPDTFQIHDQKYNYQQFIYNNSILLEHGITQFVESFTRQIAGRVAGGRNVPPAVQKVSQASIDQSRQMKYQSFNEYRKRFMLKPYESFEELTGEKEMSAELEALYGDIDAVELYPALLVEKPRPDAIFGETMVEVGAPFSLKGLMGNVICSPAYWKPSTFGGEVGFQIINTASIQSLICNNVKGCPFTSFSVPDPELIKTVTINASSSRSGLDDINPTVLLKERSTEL

[10] = molecular target: T2, VEGFR-2; experiment: cell-based; assay type: cell-based; conditions: for inhibition at 10 µM: HCT-116, HCT116; for VEGFR-2 pg/mL ± SEM HCT116: at 10 μM, control 317.80 ± 3.5
[11] = test system: MCF7 (breast) cancer cell line; experiment: 2D-monolayer antiproliferation (MTT) against MCF7; assay type: cell-based, human; conditions: for IC50: Homo sapiens, MTT, 72 h incubation, MCF7 breast, read-out: IC50, μM ± SEM MCF7; for SI (selectivity index) MCF7: IC50 of RPE1 normal cell/IC50 of MCF7
[12] = test system: RPE1 (normal human immortalized retinal pigment epithelial cell line); experiment: cells; assay type: cell-based; conditions: Homo sapiens, RPE-1; MTT, normal RPE1 cell; read-out: IC50, μM ± SEM RPE1
[13] = test system: PaCa2 (pancreatic) cancer cell line; experiment: 2D-monolayer antiproliferation (MTT) against PaCa2; assay type: cell-based, human; conditions: for IC50: Homo sapiens, PaCa-2, MTT, 72 h incubation, PaCa2 pancreatic, read-out: IC50, μM ± SEM PaCa2; for SI (selectivity index) PaCa2: IC50 of RPE1 normal cell/IC50 of PaCa2; for 1/(observed property): 1/observed IC50 (μM), PaCa2
[14] = MTT, 72 h incubation, HCT116 colon, read-out: IC50, μM ± SEM HCT116
[15] = log of observed IC50 (μM), HCT116, read-out: Log(observed property) (converted)

T2 sequence (P35968 20-1356): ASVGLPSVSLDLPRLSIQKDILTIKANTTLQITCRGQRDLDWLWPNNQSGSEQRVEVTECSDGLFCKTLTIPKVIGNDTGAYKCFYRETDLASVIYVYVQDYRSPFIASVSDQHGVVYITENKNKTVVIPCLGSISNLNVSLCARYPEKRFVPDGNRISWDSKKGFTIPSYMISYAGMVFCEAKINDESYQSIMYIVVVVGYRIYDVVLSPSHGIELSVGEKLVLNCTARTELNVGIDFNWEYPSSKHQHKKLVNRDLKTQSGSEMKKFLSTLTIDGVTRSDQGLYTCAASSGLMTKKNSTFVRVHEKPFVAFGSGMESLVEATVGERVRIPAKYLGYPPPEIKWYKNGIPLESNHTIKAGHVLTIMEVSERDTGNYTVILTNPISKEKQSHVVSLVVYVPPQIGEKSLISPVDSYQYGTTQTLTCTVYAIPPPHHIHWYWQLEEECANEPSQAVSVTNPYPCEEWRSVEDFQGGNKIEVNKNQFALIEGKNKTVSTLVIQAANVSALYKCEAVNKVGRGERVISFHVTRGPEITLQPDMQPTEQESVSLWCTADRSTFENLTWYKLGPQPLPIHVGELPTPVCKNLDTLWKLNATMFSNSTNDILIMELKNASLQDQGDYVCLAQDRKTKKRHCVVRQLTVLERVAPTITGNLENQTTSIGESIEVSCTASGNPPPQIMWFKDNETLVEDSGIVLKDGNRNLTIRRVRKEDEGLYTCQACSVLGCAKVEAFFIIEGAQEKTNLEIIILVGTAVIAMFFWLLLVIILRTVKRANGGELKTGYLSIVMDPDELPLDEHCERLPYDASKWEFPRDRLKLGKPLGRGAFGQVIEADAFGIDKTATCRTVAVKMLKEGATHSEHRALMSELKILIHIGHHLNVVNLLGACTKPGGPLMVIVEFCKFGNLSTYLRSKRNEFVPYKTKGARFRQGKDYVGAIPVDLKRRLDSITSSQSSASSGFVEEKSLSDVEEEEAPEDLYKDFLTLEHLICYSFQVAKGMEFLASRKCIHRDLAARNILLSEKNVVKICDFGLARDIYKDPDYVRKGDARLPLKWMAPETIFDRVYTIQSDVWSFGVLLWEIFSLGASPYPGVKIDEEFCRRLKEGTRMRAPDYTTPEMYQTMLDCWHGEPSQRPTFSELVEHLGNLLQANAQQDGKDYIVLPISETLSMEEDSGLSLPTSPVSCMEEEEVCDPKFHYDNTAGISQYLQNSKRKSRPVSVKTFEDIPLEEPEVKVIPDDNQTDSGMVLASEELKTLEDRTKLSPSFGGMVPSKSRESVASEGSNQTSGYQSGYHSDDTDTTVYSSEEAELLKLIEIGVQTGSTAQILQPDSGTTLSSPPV

Compound	TNF-α % inhibition PaCa2 [1] [%]	TNF-α pg/mL (± SEM) PaCa2 [1] [pg/mL]	inhibition at 10 µM [2] [%]	TNF-α pg/mL (± SEM) MCF7 [3] [pg/mL]	IC50 [4, 14] [µM]	IC50 [4, 15] [µM]	SI (selectivity index) HCT116 [4]	inhibition at 10 µM [5] [%]	VEGFR-2 pg/mL ± SEM MCF7 [5] [pg/mL]	TNF-α % inhibition HCT116 [6] [%]	TNF-α pg/mL (± SEM) HCT116 [6] [pg/mL]	IC50 [7] [µM]	SI (selectivity index) A549 [7]	inhibition at 10 µM [8] [%]	VEGFR-2 pg/mL ± SEM PaCa2 [8] [pg/mL]	inhibition at 10 µM [9] [%]	SI (selectivity index, COX-2/COX-1) [9]	inhibition at 10 µM [10] [%]	VEGFR-2 pg/mL ± SEM HCT116 [10] [pg/mL]	IC50 [11] [µM]	further results
CCOP(=O)(OCC)N1C/C(=C\c2ccccc2)C(=O)C2(C1)C(c1ccccc1)CN(C)C21C(=O)Nc2ccc(F)cc21 (stereo not shown) [Compound 17b, Diethyl (E)-(5′′-benzylidene-5-fluoro-1′-methyl-2,4′′-dioxo-4′-phenyldispiro[indoline-3,2′-pyrrolidine-3′,3′′-piperidin]-1′′-yl)phosphonate]	5.5	105.7 ± 3.9	53.7 ± 3.7	82.25 ± 2.6	7.41 ± 0.228	7.41	3.1	70.2	77.20 ± 0.6	1.1	94.64 ± 2.2	11 ± 0.135	2.1	88.1	38.75 ± 1.4	61.3 ± 2.6	1.04	77	73.25 ± 2.0	5.83 ± 0.213	SI (selectivity index) MCF7 [11]: 4.0; IC50 [12]: 23.1 ± 0.884 µM; IC50 [13]: 12.2 ± 0.297 µM; SI (selectivity index) PaCa2 [13]: 1.9
CCOP(=O)(OCC)N1C/C(=C\c2ccccc2)C(=O)C2(C1)C(c1ccccc1)CN(C)C21C(=O)Nc2ccc(Cl)cc21 (stereo not shown) [Compound 17c, Diethyl (E)-(5′′-benzylidene-5-chloro-1′-methyl-2,4′′-dioxo-4′-phenyldispiro[indoline-3,2′-pyrrolidine-3′,3′′-piperidin]-1′′-yl)phosphonate]	69.8	33.8 ± 2.2	58.6 ± 3.5	23.16 ± 0.7	6.32 ± 0.132	6.32	2.2	76.7	60.40 ± 0.5	66.9	31.72 ± 1.2	12.5 ± 0.205	1.1	91.3	28.43 ± 1.0	53.9 ± 1.7	1.05	86	44.50 ± 1.1	5.27 ± 0.172	TNF-α % inhibition MCF7 [3]: 72.2%; SI (selectivity index) MCF7 [11]: 2.6; IC50 [12]: 13.8 ± 0.423 µM; 1/(observed property) [13]: 0.1093; IC50 [13]: 9.15 ± 0.154 µM; SI (selectivity index) PaCa2 [13]: 1.5
CCOP(=O)(OCC)N1C/C(=C\c2ccc(F)cc2)C(=O)C2(C1)C(c1ccc(F)cc1)CN(C)C21C(=O)Nc2ccccc21 (stereo not shown) [Compound 17e, Diethyl (E)-[5′′-(4-fluorobenzylidene)-4′-(4-fluorophenyl)-1′-methyl-2,4′′-dioxodispiro[indoline-3,2′-pyrrolidine-3′,3′′-piperidin]-1′′-yl]phosphonate]	12.7	97.6 ± 1.6	55 ± 3.6	81.87 ± 3.0	6.99 ± 0.101	6.99	2.4	55	116.50 ± 1.0	1.5	94.27 ± 0.7	7.73 ± 0.155	2.1	61	127.43 ± 1.3	59.6 ± 1.3	1.08	66.2	107.50 ± 2.0	5.64 ± 0.273	TNF-α % inhibition MCF7 [3]: 1.7%; SI (selectivity index) MCF7 [11]: 2.9; IC50 [12]: 16.6 ± 0.907 µM; 1/(observed property) [13]: 0.1055; IC50 [13]: 9.48 ± 0.278 µM; SI (selectivity index) PaCa2 [13]: 1.8
